Test results reported in US8969565B2, “Imidazo[1,2-b]pyridazine-based compounds, compositions comprising them, and methods of their use” (Lexicon Pharmaceuticals, Inc., priority 2012, dated 2015).
Where a name gives a salt, the structure may show the parent alone.

Legend:
[1] = target: T1, AAK1 (Homo sapiens, UniProt Q2M2I8); assay: HEK281 cell-based assay (phospho-mu2 Western blot in transfected HEK293F cells); settings: 3 hours incubation, read-out: CBA IC50
T1 construct: HA; expressed in transfected cells; host or cells: HEK293F
T1 sequence (Q2M2I8 1-863 isoform Q2M2I8-2): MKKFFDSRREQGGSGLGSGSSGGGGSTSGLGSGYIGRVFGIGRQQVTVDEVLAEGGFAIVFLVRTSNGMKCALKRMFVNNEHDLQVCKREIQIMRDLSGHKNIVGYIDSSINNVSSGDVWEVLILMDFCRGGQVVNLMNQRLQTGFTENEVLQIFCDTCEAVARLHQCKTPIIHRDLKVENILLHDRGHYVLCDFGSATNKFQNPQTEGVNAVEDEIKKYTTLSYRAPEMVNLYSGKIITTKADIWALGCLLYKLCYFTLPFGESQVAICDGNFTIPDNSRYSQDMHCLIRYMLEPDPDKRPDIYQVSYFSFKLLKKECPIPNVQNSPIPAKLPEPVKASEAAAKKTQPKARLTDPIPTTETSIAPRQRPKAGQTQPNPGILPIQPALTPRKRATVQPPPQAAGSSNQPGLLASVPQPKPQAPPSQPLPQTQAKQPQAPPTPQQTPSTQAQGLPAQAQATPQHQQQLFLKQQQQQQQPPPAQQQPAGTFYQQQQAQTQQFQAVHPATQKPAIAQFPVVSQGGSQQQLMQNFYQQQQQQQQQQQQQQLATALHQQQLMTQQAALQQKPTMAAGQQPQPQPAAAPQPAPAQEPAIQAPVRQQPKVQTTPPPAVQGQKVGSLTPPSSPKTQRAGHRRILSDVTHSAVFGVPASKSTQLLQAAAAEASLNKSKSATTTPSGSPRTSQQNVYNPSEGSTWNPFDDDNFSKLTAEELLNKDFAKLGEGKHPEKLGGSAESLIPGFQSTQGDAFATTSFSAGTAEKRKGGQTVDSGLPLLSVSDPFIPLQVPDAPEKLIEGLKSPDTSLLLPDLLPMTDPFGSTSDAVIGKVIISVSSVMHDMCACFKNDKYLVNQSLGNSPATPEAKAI
In short: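 After 3 hours at 37° C. with compound (five 3-fold-spaced concentrations, DMEM+0.5% FBS), transiently transfected HEK293F cells expressing full-length human AAK1 and Flag-tagged mu2 were lysed. mu2 phosphorylation was read by anti-phospho-mu2 immunoblot, normalized against total mu2 by anti-Flag blot.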

[2] = target: T1, AAK1; assay: P81 filter plate assay; assay type: biochemical; settings: full-length human AAK1, Mu2 substrate

IC50 [1] [µM] | melting point | IC50 [2] [µM] | SMILES
– | 217 to 218 °C (dec.) | – | COc1cnccc1-c1cnc2ccc(N3CCN(C(=O)OC(C)C)CC3)nn12 (as salt: hydrochloride) [Example 5.6.103, 4-[3-(3-Methoxy-pyridin-4-yl)-imidazo[1,2-b]pyridazin-6-yl]-piperazine-1-carboxylic acid isopropyl ester]
– | 138 to 139 °C | – | CC(C)(C)OC(=O)N1CCC[C@H]1CNc1ccc2ncc(I)n2n1 [Example 5.6.107, (S)-2-[(3-Iodo-imidazo[1,2-b]pyridazin-6-ylamino)-methyl]-pyrrolidine-1-carboxylic acid tert-butyl ester]
≤ 1 | 99 to 101 °C | – | CCCCN(C)c1ccc2ncc(-c3ccc(CN)cc3)n2n1 [[3-(4-Aminomethyl-phenyl)-imidazo[1,2-b]pyridazin-6-yl]-butyl-methyl-amine]
– | 144 to 145 °C | – | CC(C)OC(=O)N1CCN(c2ccc3ncc(Br)n3n2)CC1C (racemic) [Example 5.6.147, Isopropyl 4-(3-bromoimidazo[1,2-b]pyridazin-6-yl)-2-methylpiperazine-1-carboxylate]
– | 202 to 203 °C | – | O=C(N1CCCC1)N1CCN(c2ccc3ncc(-c4ccccn4)n3n2)CC1 (as salt: hydrochloride) [[4-(3-Pyridin-2-yl-imidazo[1,2-b]pyridazin-6-yl)-piperazin-1-yl]-pyrrolidin-1-yl-methanone]
– | 243 to 244 °C (dec.) | – | COc1ccccc1-c1cnc2ccc(N3CCN(C(=O)OC(C)C)CC3)nn12 (as salt: hydrochloride) [Example 5.6.115, 4-[3-(2-Methoxy-phenyl)-imidazo[1,2-b]pyridazin-6-yl]-piperazine-1-carboxylic acid isopropyl ester]
– | 276 to 277 °C (dec.) | – | CC(C)SC(=O)N1CCN(c2ccc3ncc(-c4ccccc4)n3n2)CC1 (as salt: hydrochloride) [S-Isopropyl 4-(3-phenylimidazo[1,2-b]pyridazin-6-yl)piperazine-1-carbothioate]

The remaining lines, values behind:

SMILES | IC50 [1] [µM] | melting point | IC50 [2] [µM]
CCCCNc1ccc2ncc(-c3ccc(-c4nnn[nH]4)cc3)n2n1 [Butyl-{3-[4-(1H-tetrazol-5-yl)-phenyl]-imidazo[1,2-b]pyridazin-6-yl}-mine] | ≤ 1 | 270 to 271 °C | –
CC(C)(C)OC(=O)N1CCN(c2ccc3ncc(-c4ccccc4)n3n2)CC1 [4-(3-Phenyl-imidazo[1,2-b]pyridazin-6-yl)-piperazine-1-carboxylic acid tert-butyl ester] | ≤ 0.1 | 101 to 103 °C (dec.) | ≤ 0.01
CC(C)N(CCNc1ccc2ncc(Br)n2n1)C(=O)OC(C)(C)C [Example 5.6.72, [2-(3-Bromo-imidazo[1,2-b]pyridazin-6-ylamino)-ethyl]-isopropyl-carbamic acid tert-butyl ester] | – | 154 to 155 °C | –
CCCCNc1ccc2ncc(-c3ccc(-c4noc(=O)[nH]4)cc3)n2n1 [Example 5.6.49, 3-[4-(6-Butylamino-imidazo[1,2-b]pyridazin-3-yl)-phenyl]-4H-[1,2,4]oxadiazol-5-one] | – | 253 to 254 °C (dec.) | –
CC(C)OC(=O)N1CCN(c2ccc3ncc(Br)n3n2)CC1 [Example 5.6.102, 4-(3-Bromo-imidazo[1,2-b]pyridazin-6-yl)-piperazine-1-carboxylic acid isopropyl ester] | – | 123 to 124 °C | –
CC(=O)c1ccc(-c2cnc3ccc(N(C)CCCNC(=O)OC(C)(C)C)nn23)s1 [Example 5.6.27, (3-{[3-(5-Acetyl-thiophen-2-yl)-imidazo[1,2-b]pyridazin-6-yl]-methyl-amino}-propyl)-carbamic acid tert-butyl ester] | – | 148 to 149 °C | –
CC(C)(C)NC(=O)N1CCN(c2ccc3ncc(Br)n3n2)CC1 [4-(3-Bromoimidazo[1,2-b]pyridazin-6-yl)-N-(tert-butyl)piperazine-1-carboxamide] | ≤ 0.1 | 199 to 200 °C | ≤ 0.01
CN(CCNc1ccc2ncc(Br)n2n1)C(=O)OC(C)(C)C [Example 5.6.56, [2-(3-Bromo-imidazo[1,2-b]pyridazin-6-ylamino)-ethyl]-methyl-carbamic acid tert-butyl ester] | – | 128 to 129 °C | –
